In general, IC50 refers to the midpoint of a concentration-inhibition curve.

Test [1] has as its system IL-21. The test is described as follows: Real-time qRT-PCR in TH17 cells: IL-21 gene expression. The format is cell-based, human. Set-up: key: A: No change in gene expression observed relative to DMSO treated Th17 cells; B: Decreased gene expression observed relative to DMSO treated Th17 cells; C: Increased gene expression observed relative to DMSO treated Th17 cells. How it is done: (§1) Peripheral blood mononuclear cells (PBMCs) were sourced from freshly prepared leukocyte enriched plasma (buffy coat) from healthy volunteers from which PBMCs were isolated by density gradient centrifugation using Ficoll-Paque™ PLUS (GE Healthcare). Naïve CD4+ T cells were isolated using the Naïve CD4+ T cell Isolation Kit II (Miltenyi Biotec) as per manufacturer's instructions. CD4+ T cells were plated at 5×10^4 cells/well in 96 well plates pre-coated with immobilized human (h)-αCD3 antibody (eBioscience) then differentiated to TH17 cells using h-αCD28, h-αIFNγ, h-αIL4, h-IL6, h-IL23, h-IL1β, h-TGFβ1 (eBioscience) and maintained in a cell culture incubator at 37° C. with 5% CO2 in TexMACS Medium (Miltenyi Biotec) supplemented with 1% Penicillin/Streptomycin (Lonza) over 5 days.
(§2) RNA was isolated from TH17 cells and cDNA was synthesized using the Verso cDNA kit (Thermo Scientific) as per manufacturer's instructions. IL-17A, IL-17F, IL-21, IL-22, G-CSF, IL-23R and FOXP3 gene expression were determined for compound treated and untreated TH17 cell samples using Solaris qPCR Gene expression assays (Thermo Scientific) with an iCycler iQ Real-Time PCR Detection System (Bio-Rad). Individual gene expression was normalized to a panel of six reference genes (ACTB, TBP, HPRT1, PGK1, TFRC and PPIA) (Thermo Scientific) and analyzed by REST 2009 (Qiagen) in accordance to MIQE guidelines (Bustin et al. (2009) Clin. Chem, 55:611-622). The effects of compounds on TH17 cytokine mRNA levels are presented as fold change in gene expression of compound treated TH17 cells relative to DMSO treated cells in the table below.
(In general: Real-time PCR tracks product formation cycle by cycle.)

The subject of test [2] is IL-22. The test is described as follows: Real-time qRT-PCR in TH17 cells: IL-22 gene expression. Format: cell-based, human. Details: key: A: No change in gene expression observed relative to DMSO treated Th17 cells; B: Decreased gene expression observed relative to DMSO treated Th17 cells; C: Increased gene expression observed relative to DMSO treated Th17 cells. The protocol:
as §1, §2

In test [3] the test system is IL-17A. Description: TH17 cytokine inhibition as measured by ELISA: IL-17A. The format is cell-based. As to conditions: 120 h; human TH17 cells, 5 days differentiation, ELISA of supernatant. The protocol:
as §1
(§3) Human CD4+ T cells were differentiated to TH17 cells as described in the presence or absence of various concentrations of compounds in a final concentration of 0.1% DMSO in TexMACS medium. Supernatants were collected and stored at −20° C. until they were to be assayed for IL-17A, IL-17F, IL-17AF, IL-21 and/or IL-22 levels as determined by Ready-Set-Go ELISA kits (eBioscience) as per manufacturer's instructions. Endpoint absorbance was read at 450 nm and 570 nm according to manufacturer's instructions (eBioscience) using a microplate reader (Perkin Elmer). The percentage of cytokine inhibition was calculated with reference to DMSO treated cells and the IC50s were determined by GraphPad Prism software and presented in the table below.
For orientation: ELISA stands for enzyme-linked immunosorbent assay.

Test [4] concerns IL-17AF. Description: TH17 cytokine inhibition as measured by ELISA: IL-17AF. Format: cell-based. As to conditions: 120 h; human TH17 cells, 5 days differentiation, ELISA of supernatant. How it is done:
as §1, §3

The subject of test [5] is IL-17F. Description: Real-time qRT-PCR in TH17 cells: IL-17F gene expression. The format is cell-based, human. Details: key: A: No change in gene expression observed relative to DMSO treated Th17 cells; B: Decreased gene expression observed relative to DMSO treated Th17 cells; C: Increased gene expression observed relative to DMSO treated Th17 cells. The protocol: as §1, §2

In test [6] the test system is IL-17A. Description: Real-time qRT-PCR in TH17 cells: IL-17A gene expression. Set-up: key: A: No change in gene expression observed relative to DMSO treated Th17 cells; B: Decreased gene expression observed relative to DMSO treated Th17 cells; C: Increased gene expression observed relative to DMSO treated Th17 cells. Format: cell-based, human. The protocol: as §1, §2

The test system of test [7] is IL-23R. Description: Real-time qRT-PCR in TH17 cells: IL-23R gene expression. Format: cell-based, human. Set-up: key: A: No change in gene expression observed relative to DMSO treated Th17 cells; B: Decreased gene expression observed relative to DMSO treated Th17 cells; C: Increased gene expression observed relative to DMSO treated Th17 cells. How it is done:
as §1, §2

Test [8] relates to IL-21. Description: TH17 cytokine inhibition as measured by ELISA: IL-21. The settings on record: 120 h; human TH17 cells, 5 days differentiation, ELISA of supernatant. The format is cell-based.
Source text: Peripheral blood mononuclear cells (PBMCs) were sourced from freshly prepared leukocyte enriched plasma (buffy coat) from healthy volunteers from which PBMCs were isolated by density gradient centrifugation using Ficoll-Paque™ PLUS (GE Healthcare). Naïve CD4+ T cells were isolated using the Naïve CD4+ T cell Isolation Kit II (Miltenyi Biotec) as per manufacturer's instructions. […]
as §3

SMILES strings stand for the structures.

Turning to `CC(=O)Nc1ccc2c(c1)CCCN2Cc1ccc(C(O)(C(F)(F)F)C(F)(F)F)cc1` [Example 2, N-(1-(4-(1,1,1,3,3,3-hexafluoro-2-hydroxypropan-2-yl)benzyl)-1,2,3,4-tetrahydroquinolin-6-yl)acetamide], the “Fold change in mRNA level of compound treated TH17 cells relative to DMSO treated cells IL-21” value in test [1] was “A”. For the same compound, in test [2], the “Fold change in mRNA level of compound treated TH17 cells relative to DMSO treated cells IL-22” value is listed as “A”. Moreover, the IC50 in test [3] and in test [4] was less than 10 µM each time. Also, the “Fold change in mRNA level of compound treated TH17 cells relative to DMSO treated cells IL-17F” value in test [5] was “A”. Moreover, the “Fold change in mRNA level of compound treated TH17 cells relative to DMSO treated cells IL-17A” value in test [6] is “A”. Besides, in test [7], the “Fold change in mRNA level of compound treated TH17 cells relative to DMSO treated cells IL-23R” value is given as “A”.
Turning to `CS(=O)(=O)Nc1ccc2c(c1)CCCN2Cc1ccc(C(O)(C(F)(F)F)C(F)(F)F)cc1` [Example 5, N-(1-(4-(1,1,1,3,3,3-hexafluoro-2-hydroxypropan-2-yl)benzyl)-1,2,3,4-tetrahydroquinolin-6-yl)methanesulfonamide], the “Fold change in mRNA level of compound treated TH17 cells relative to DMSO treated cells IL-21” value in test [1] is on record as “B”. Besides, the “Fold change in mRNA level of compound treated TH17 cells relative to DMSO treated cells IL-22” value in test [2] is on record as “A”. In test [3], this compound returned an IC50 of less than 10 µM. For the same compound, the “Fold change in mRNA level of compound treated TH17 cells relative to DMSO treated cells IL-17F” value in test [5] is recorded as “B”. The “Fold change in mRNA level of compound treated TH17 cells relative to DMSO treated cells IL-17A” value in test [6] is recorded as “B”. In addition, the “Fold change in mRNA level of compound treated TH17 cells relative to DMSO treated cells IL-23R” value in test [7] was “B”.
Take `CC(=O)Nc1ccc2c(c1)CCN2Cc1ccc(C(O)(C(F)(F)F)C(F)(F)F)cc1` [Example 4, N-(1-(4-(1,1,1,3,3,3-hexafluoro-2-hydroxypropan-2-yl)benzyl)indolin-5-yl)acetamide]: the IC50 in test [8], in test [3] and in test [4] was less than 10 µM each time. In addition, the “Fold change in mRNA level of compound treated TH17 cells relative to DMSO treated cells IL-21” value in test [1] is given as “B”. The “Fold change in mRNA level of compound treated TH17 cells relative to DMSO treated cells IL-22” value in test [2] is given as “C”. Further, the “Fold change in mRNA level of compound treated TH17 cells relative to DMSO treated cells IL-17F” value in test [5] is given as “B”. The “Fold change in mRNA level of compound treated TH17 cells relative to DMSO treated cells IL-17A” value in test [6] is listed as “B”. In test [7], the “Fold change in mRNA level of compound treated TH17 cells relative to DMSO treated cells IL-23R” value is listed as “B”.

The values are drawn from patent publication US9321750B2, “ROR modulators and their uses” (INNOV17 LLC, priority 2012, dated 2016).
